In general, EC50 refers to the concentration needed to bring the measured effect to its halfway point.

Drawing on patent publication US7879852B2, “Melanocortin receptor agonists” (LG Life Sciences Ltd., priority 2006, dated 2011), this text covers EC50 for eleven compounds.

T1 sequence (P32245 whole entry): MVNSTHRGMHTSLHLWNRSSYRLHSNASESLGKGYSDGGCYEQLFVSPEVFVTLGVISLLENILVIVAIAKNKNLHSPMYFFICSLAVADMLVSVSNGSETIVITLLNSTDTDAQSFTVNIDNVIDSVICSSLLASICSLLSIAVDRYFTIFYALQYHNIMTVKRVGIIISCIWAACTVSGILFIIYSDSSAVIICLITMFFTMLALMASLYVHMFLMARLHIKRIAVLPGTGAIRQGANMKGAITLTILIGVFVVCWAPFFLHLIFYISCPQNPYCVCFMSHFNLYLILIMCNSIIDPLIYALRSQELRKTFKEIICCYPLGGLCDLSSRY

The test concerns the target T1, human melanocortin receptor 4 (MC4R) (Homo sapiens, UniProt P32245).
T1 construct: expressed in transfected cells; grown with 200 ug/ml Geneticin
As to the kind of experiment: Luciferase assay. The class given is cell-based. The note with it: agonistic activity at MC4R (Table 18); patent does not state whether luciferase or cAMP assay. The procedure: Cell lines expressing human melanocortin receptor 4 (MC4R) were dissociated from tissue culture dishes by rinsing with Ca^++, Mg^++ free DPBS, treated with 1× Trypsin/EDTA solution for 1 min at 37° C., and resuspended with DMRM (GIBCO-BRL) supplemented with 10% FBS. The cells were counted and diluted with DMEM supplemented with 10% FBS and 200 ug/ml of Geneticin to […]. 90 ul of cell suspension was plated onto each well of 96-well black and clear bottom culture plates (Costar). After the incubation for 24 h in the atmosphere of 6% CO2 at 37° C., 10 ul of NDP-MSH and test compounds diluted in DMSO were added to each well. The final DMSO concentration was 1%. After 4 h of incubation in the atmosphere of 6% CO2 at 37° C., 50 ul of Bright-Glo (Promega) was added to each well. Luciferase activity was measured by using L-Max luminometer (Molecular Device). The amount of luciferase activity induced by treatment with NDP-MSH was defined as 100% to obtain the relative efficacy of test compounds. The EC0.5 MSH was defined as the concentration of test compounds that results in half maximal activity of NDP-MSH. The EC50 was defined as the concentration of test compound that results in half maximal activity of its own.
(In general: cAMP levels reflect the balance of adenylyl cyclase and phosphodiesterase activity.)
The compound `CN(C)C(=O)[C@@H]1C[C@H](N(C(=O)C(C)(C)C)C2CCC(C)(C)CC2)CN1C(=O)[C@@H]1CN(C(C)(C)C)C[C@H]1c1ccc(F)cc1F` [Example A1, (4S)-1-{[(3S,4R)-1-tert-butyl-4-(2,4-difluorophenyl)pyrrolidine-3-yl]carbonyl}-4-[(4,4-dimethylcyclohexyl)(2,2-dimethylpropanoyl)amino]-N,N-dimethyl-L-prolineamide] yielded an EC50 of 0.013 µM.
On to `CCNC(=O)[C@@H]1C[C@H](N(C(=O)[C@@H]2CCCO2)C2CCC(C)(C)CC2)CN1C(=O)[C@@H]1CN(C(C)(C)C)C[C@H]1c1ccc(Cl)cc1` [Example A3, (4S)-1-{[(3S,4R)-1-tert-butyl-4-(4-chlorophenyl)pyrrolidine-3-yl]carbonyl}-4-{(4,4-dimethylcyclohexyl)[(2S)-tetrahydrofuran-2-ylcarbonyl]amino}-N-ethyl-L-prolineamide], for which the EC50 turned out to be 0.012 µM.
The compound `CCN(C)C(=O)[C@@H]1C[C@H](N(C(=O)C(C)(C)CO)C2CCC(C)(C)CC2)CN1C(=O)[C@@H]1CN(C(C)(C)C)C[C@H]1c1ccc(Cl)cc1` [Example A4, (4S)-1-{[(3S,4R)-1-tert-butyl-4-(4-chlorophenyl)pyrrolidine-3-yl]carbonyl}-4-[(4,4-dimethylcyclohexyl)(3-hydroxy-2,2-dimethylpropanoyl)amino]-N-ethyl-N-methyl-L-prolineamide] returned an EC50 of 0.003 µM.
For `CN(C)C(=O)[C@@H]1C[C@H](N(C(=O)C(C)(C)C)C2CCC(F)(F)CC2)CN1C(=O)[C@@H]1CN(C(C)(C)C)C[C@H]1c1ccc(Cl)cc1` [Example A5, (4S)-1-{[(3S,4R)-1-tert-butyl-4-(4-chlorophenyl)pyrrolidine-3-yl]carbonyl}-4-[(4,4-difluorocyclohexyl)(2,2-dimethylpropanoyl)amino]-N,N-dimethyl-L-prolineamide] the value was 0.033 µM; for `CCNC(=O)[C@@H]1C[C@H](N(C(=O)C(C)(C)C)C2CCC(F)(F)CC2)CN1C(=O)[C@@H]1CN(C(C)(C)C)C[C@H]1c1ccc(Cl)cc1` [Example A6, (4S)-1-{[(3S,4R)-1-tert-butyl-4-(4-chlorophenyl)pyrrolidine-3-yl]carbonyl}-4-[(4,4-difluorocyclohexyl)(2,2-dimethylpropanoyl)amino]-N-ethyl-L-prolineamide], 0.024 µM; for `CN1C[C@@H](C(=O)N2C[C@@H](N(C(=O)C(C)(C)C)[C@H]3CC[C@@H](C)CC3)C[C@H]2C(N)=O)[C@H](c2ccc(Cl)cc2)C1` [Example A7, (4S)-1-{[(3S,4R)-4-(4-Chlorophenyl)-1-methylpyrrolidine-3-yl]carbonyl}-4-[(2,2-dimethylpropanoyl)(cis-4-methylcyclohexyl)amino]-L-prolineamide], 0.024 µM.
For `CC1(C)CCC(N(C(=O)C(C)(C)C)[C@H]2CCN(C(=O)[C@@H]3CN(C(C)(C)C)C[C@H]3c3ccc(Cl)cc3)C2)CC1` [Example A9, N-[(3S,4R)-1-{[(3S,4R)-1-T-butyl-4-(4-chlorophenyl)pyrrolidine-3-yl]carbonyl}pyrrolidine-3-yl]-N-(4,4-dimethylcyclohexyl)-2,2-dimethylpropaneamide] the value was 0.045 µM.
Under `CCN(C)C(=O)[C@@H]1C[C@H](N(C(=O)C(C)(C)C)C2CCC(F)(F)CC2)CN1C(=O)[C@@H]1CN(C(C)(C)C)C[C@H]1c1ccc(Cl)cc1` [Example A75] stands 0.079 µM; under `CCN(C)C(=O)[C@@H]1C[C@H](N(C(=O)[C@@H]2CCCO2)C2CCC3(CC2)CC3)CN1C(=O)[C@@H]1CN(C(C)(C)C)C[C@H]1c1ccc(Cl)cc1` [Example A90], 0.03 µM.
Turning to `CC(=O)N(C1CCC(C)(C)CC1)[C@H]1C[C@@H](C(=O)N2CCOCC2)N(C(=O)[C@@H]2CN(C(C)(C)C)C[C@H]2c2ccc(Cl)cc2)C1` [Example A96], a half-maximal response (EC50) required 0.038 µM.
In turn, `CC1(C)CCC(N(C(=O)C(C)(C)C)[C@H]2C[C@@H](C(=O)Nc3ccccc3)N(C(=O)[C@@H]3CN(C(C)(C)C)C[C@H]3c3ccc(Cl)cc3)C2)CC1` [Example A99] showed an EC50 of 0.069 µM.
